Experimental data taken from patent US11992545B2, “Aqueous cosmetic compositions containing pelargonic acid esters” (Novamont S.p.A., priority 2015, dated 2024).

How the values were obtained:
[1] = Pigments dispersion: wet point and flow point; type: physicochemical; conditions: for Fp (flow point), amount of ester oil / Wp (wet point), amount of ester oil: grams per 100 g of pigment
Text: Black Iron Oxide particles (C177499, commercially available as YPC335200 from Yipin) were dispersed in each of the ester oils of the present invention and in ester oil commonly used as cosmetic ingredients. Each sample of powder particles was wetted by the dropwise addition of one ester oil and then vigorously blended using a spatula until the wet point and the flow point were reached.
The wet point is defined as the minimum volume of dispersant solution to produce a soft coherent mass; the further minimum addition of dispersant solution to produce flow or falling off of the homogeneous mass from the vertical blade of a horizontally held spatula determines the flow point.
The amounts of dispersant solution (i.e. ester oil) needed to reach the wet point (Wp) and the flow point (Fp) were recorded and reported in the table below, expressed in grams per 100 g of pigment.

[2] = UV filters dispersion (dispersibility of solid UV filter in ester oils); type: physicochemical; set-up: key to Filters dispersion t0, 1% / Filters dispersion t0, 10% / Filters dispersion t24, 1% / Filters dispersion t24, 10%: D=homogeneous dispersion; S=sediment deposit; conditions: for Filters dispersion t0, 1%: 1% TiO2, 0 hours at 25° C.; for Filters dispersion t24, 1%: 1% TiO2, 24 hours at 25° C.; for Filters dispersion t0, 10%: 10% TiO2, 0 hours at 25° C.; for Filters dispersion t24, 10%: 10% TiO2, 24 hours at 25° C.; for dispersion of Titania compared with reference solvents: in words
Description: The dispersibility of a solid UV filter in different ester oils was tested using Titania (TiO2, commercially available as Titanio Biossido Anatasio from A.C.E.F.). Various ratios of filter/ester (1% and 10% TiO2) were prepared under stirring at 70° C. for 30 minutes. The dispersions were then observed after a storage period of 0 hours (t0) and 24 hours (t24) at ambient temperature (25° C.) to check for the formation of any sediment deposit. Results for each ester are shown in the table below (D=homogeneous dispersion; S=sediment deposit).

less solvent required in the final composition [1]	Fp (flow point), amount of ester oil [1] [g]	Wp (wet point), amount of ester oil [1] [g]	dispersion properties compared with commonly used cosmetic ingredients ([1]; in words)	Filters dispersion t0, 1% [2]	Filters dispersion t24, 1% [2]	Filters dispersion t0, 10% [2]	Filters dispersion t24, 10% [2]	dispersion of Titania compared with reference solvents [2]	Structure (SMILES)
about 30%	100.00	60.00	even better	D	D	D	S/D	even better	CCCCCCCCC(=O)OCC(COC(=O)CCCCCCCC)OC(=O)CCCCCCCC [Glycerol tripelargonate]
–	145.00	50.00	–	D	S	D	S	–	CC(C)CCCCCCOC(=O)CCCCCC(C)C [Isononyl Isononanoate, reference compound]
–	166.00	61.00	–	D	S/D	D	S/D	–	CCCCCCCCC(=O)OCC(C)(C)COC(=O)CCCCCCCC [Neopentyl glycol dipelargonate]
–	132.00	62.00	–	D	D	D	D	even better	CCCCCCCCC(=O)OCC(COC(=O)CCCCCCCC)(COC(=O)CCCCCCCC)COC(=O)CCCCCCCC [Pentaerythritol tetrapelargonate]
